In patent publication US11459375B2, “Cyclic peptides for the treatment of Graves' disease” (advanceCOR GmbH, priority 2017, dated 2022):
Peptide text beside a SMILES is read from it.

How the values were obtained:
[1] = assay type: physicochemical
Text: Peptide 836 is a 24-meric cyclic peptide corresponding to the eighth TSHR LRD loop, and peptide 829 (also 24-meric) to the first loop of the TSHR LRD.

Ad-TSHR-immunized mice [2] = experiment: heart weights upon necropsy; assay type: in vivo, BALB/c mice; details: 1 mg/kg IV 4-weekly, necropsy at end of experiment
Experimental: (§1) In FIG. 7 the effect of the peptide therapy on heart rates at various times during the experiment (A), and on heart weights (B) and cardiac ventricular volumes (C) at the end of the experiment were evaluated in all animals. The measurements were carried out in Ad-TSHR-immunized mice treated by either 4-weekly injections with vehicle (0.9% NaCl, “Graves' no therapy”, n=25 mice), or administrations of 1 mg/kg body weight of peptide of the invention 836 (12 mice), or of peptide 829 (13 mice), or TSHR-Fc (18 mice). In addition, age-matched immunologically naïve unimmunized mice (“healthy”, 19 animals) were investigated. Data are represented as mean±SEM. Significance over time was tested by analysis of variance (ANOVA) of groups at given time points, and controlled by ANOVA for repeated measurements within one group, followed by LSD post-hoc testing. *p<0.05, and **p<0.005, compared to the TSHR-immunized group treated with only NaCl (“Graves' no therapy”).
Due to unavailability of some fine histological sections, analysis of this parameter in mice treated with other peptides could unfortunately not be completed.

Ad-TSHR-immunized mice [3] = experiment: ECG heart rates in Graves' disease mouse model; assay type: in vivo, BALB/c mice; details: 1 mg/kg IV 4-weekly, ECG under anaesthesia
Experimental: as §1
When mice were subjected to anaesthesia for immunisation, their heart function was monitored with an electrocardiogram (ECG amplifier module, Harvard Apparatus, Hugo Sachs electronics) and recorded with a special software, which allows to determine the heart rate from the ECG reading (Haemodyn, Hugo Sachs electronics). ECG was also performed in anaesthesia before animals were euthanized for histological exam at the end of the study.

Ad-TSHR-immunized mice [4] = experiment: serum thyroxin (T4) levels in Graves' disease mouse model; assay type: in vivo, BALB/c mice; details: 1 mg/kg IV 4-weekly, after start of therapy (week 11)
Experimental: In FIG. 5 the effects of peptide therapy on serum thyroxin levels were evaluated. The measurements were carried out in Ad-TSHR-immunized mice treated by either 4-weekly injections with vehicle (0.9% NaCl, “Graves' no therapy”, n=25 mice), or administrations of 1 mg/kg body weight of peptide of the invention 836 (12 mice), or of peptide 829 (13 mice), or TSHR-Fc (18 mice), or of control peptide 835 (13 mice). In addition, age-matched immunologically naïve unimmunized mice (“healthy”, 19 animals) were investigated. Data are represented as means±SEM. Significance over time was tested by analysis of variance (ANOVA) of groups at given time points, and controlled by ANOVA for repeated measurements within one group, followed by LSD post-hoc testing. *p<0.05, and **p<0.005, compared to the TSHR-immunized group treated with only NaCl (“Graves' no therapy”).
(§2) The study protocol used three 3-weekly immunizations (“initiation”) and followed by a “maintenance” phase with further regular 4-weekly boosts until the 9th immunisation, as described before (22). Mice were randomly assigned to therapeutic groups. Therapy (either 1 mg/kg body weight peptides or 0.9% NaCl vehicle control) was given 1 week after the 4th immunization by IV injection into a tail vein, and then continued at 4-weekly intervals, as described before for the treatment of anti-β1AR (16). The fusion protein TSHR-Fc was given IV at identical times at doses of 1 mg/kg, but had to be applied together with the histamine receptor blocker clemastin (Tavegil®) at a dose of 0.02 mg per mouse (25 g body weight) to avoid clinical symptoms of allergic reaction, which had been observed in initial pilot studies of TSHR-Fc administration in mice.
Total thyroxine (T4) was measured by immunoassay kit (#T4044T-100, Calbiotech Inc, Austin, Calif.) in duplicate determination.

Ad-TSHR-immunized mice [5] = experiment: thyroid size at end of experiment in Graves' disease mouse model; assay type: in vivo, BALB/c mice; details: 1 mg/kg IV 4-weekly
Experimental: Representative images are shown. In FIG. 4B, the effects of peptide therapy on thyroid sizes were investigated at the end of the experiment. The measurements were carried out in Ad-TSHR-immunized mice treated by either 4-weekly injections with vehicle (0.9% NaCl, “Graves' no therapy”, n=25 mice), or administrations of 1 mg/kg body weight of peptide of the invention 836 (12 mice), or of peptide 829 (13 mice), or of TSHR-Fc (18 mice), or of control peptide 835 (13 mice). In addition, age-matched immunologically naïve unimmunized mice (“healthy”, 19 animals) were investigated. The mean thyroid sizes in mm^3 are shown with SEM. Differences between groups were tested by AVOVA followed by post hoc LSD testing. ** indicates statistical significance (p<0.001) compared to the TSHR-immunized group treated with only NaCl (“Graves' no therapy”).
as §2
After euthanasia, dissection of the thyroid glands was performed under a stereomicroscope, as described before (22). Briefly, cross cuts at the level above the larynx and below the seventh cartilage ring were made and the glands with the tracheae and oesophagi were removed from the necks. Tissue blocks were kept in 4% neutral para-formaldehyde (PFA), washed in PBS 3 times and embedded in optimum cutting temperature (OCT) formulation (Tissue-Tek® O.C.T.™ compound, VWR Chemicals, Leuven, Belgium). Consecutive 5 μm-thick cross sections were cut at a fixed distance of 500 μm using a Leica microtome CM 1850 Cryostat (temperature at −19° C.) and mounted on Thermo Polysine slides (Thermo Scientific, Cat J2800AMNZ). […] Thyroid volumes (mm^3) were calculated from the sum of the areas of each section over the whole cutting region. Myocardial volumes (mm^3) were calculated in a similar way as described for thyroid glands from the sum of the areas of each section over whole cutting region (5 to 6 slides, depending on respective size of the hearts). […]

Molecule | solubility in water [1] | heart weights (Ad-TSHR-immunized mice [2]) | heart rate (Ad-TSHR-immunized mice [3]) | serum thyroxin (T4) levels (Ad-TSHR-immunized mice [4]) | thyroid size (Ad-TSHR-immunized mice [5])
CC[C@H](C)[C@@H]1NC(=O)[C@H](C(C)C)NC(=O)[C@H]([C@@H](C)O)NC(=O)[C@H](CC(C)C)NC(=O)[C@H](Cc2ccc(O)cc2)NC(=O)[C@H](CCCCN)NC(=O)[C@H](CC(N)=O)NC(=O)[C@H](CCCCN)NC(=O)[C@H](CC(N)=O)NC(=O)[C@H](CC(C)C)NC(=O)[C@H](Cc2ccc(O)cc2)NC(=O)[C@H](C(C)C)NC(=O)[C@H](C)NC(=O)[C@H](CC(=O)O)NC(=O)[C@H](CC(C)C)NC(=O)[C@H](CCCCN)NC(=O)[C@H]([C@@H](C)O)NC(=O)CNC(=O)[C@H](CC(N)=O)NC(=O)[C@H](Cc2ccccc2)NC(=O)[C@H](C)NC(=O)[C@H](Cc2ccc(O)cc2)NC(=O)CNC(=O)[C@H](CC(=O)O)NC1=O [peptide 836] (cyclo(GYAFNGTKLDAVYLNKNKYLTVID)) | easily soluble in water | significantly reduced heart weights | no further increase, and significantly decreased resting heart rates at later time points | progressively decreasing T4 levels, which consecutively reverted to normal values | decreased thyroid sizes
SPPCECHQEEDFRVTCKDIQRIPS [peptide 829] | easily soluble in water | trends towards reduced heart weights which did not reach statistical significance | a trend which did not reach statistical significance | a trend which did not reach statistical significance | a trend which did not reach statistical significance
TSHR-Fc: fusion protein: first 289 amino acids of human TSH receptor (A-subunit), GGR linker and Fc portion of human IgG2 |  | trends towards reduced heart weights which did not reach statistical significance | no further increase, and significantly decreased resting heart rates at later time points | progressively decreasing T4 levels, which consecutively reverted to normal values | decreased thyroid sizes
